Test results as given in ChEMBL document CHEMBL5252641, “Design, synthesis, and evaluation of benzofuran-based chromenochalcones for antihyperglycemic and antidyslipidemic activities” (RSC Med Chem, 2023).
The source made the active and inactive calls. No cut-off for these calls is given here.

Key:
[1] = Antioxidant activity assessed as hydroxyl radical scavenging activity at 100 uM incubated for 90 mins by spectrophotometric analysis; type: functional
[2] = Antioxidant activity assessed as superoxide anion radical scavenging activity at 100 uM incubated for 30 mins by spectrophotometric analysis; type: functional
Syrian golden hamster [3] = test: Antidyslipidemic activity in Triton-induced hyperlipidemic Syrian golden hamster model assessed as increase in post-heparin lipolytic activity at 50 mg/kg measured after 18 hrs; type: functional, Mesocricetus auratus
Syrian golden hamster [4] = test: Antidyslipidemic activity in Triton-induced hyperlipidemic Syrian golden hamster model assessed as decrease in PL level at 50 mg/kg measured after 18 hrs; type: functional, Mesocricetus auratus; set-up: scale not given: the % may be the effect or the level left
Syrian golden hamster [5] = test: Antidyslipidemic activity in Triton-induced hyperlipidemic Syrian golden hamster model assessed as decrease in triglyceride level at 50 mg/kg measured after 18 hrs; type: functional, Mesocricetus auratus; set-up: scale not given: the % may be the effect or the level left
Syrian golden hamster [6] = test: Antidyslipidemic activity in Triton-induced hyperlipidemic Syrian golden hamster model assessed as decrease in total cholesterol level at 50 mg/kg measured after 18 hrs; type: functional, Mesocricetus auratus; set-up: scale not given: the % may be the effect or the level left
Rattus norvegicus [7] = test: Antidiabetic activity in streptozotocin induced hyperglycemic Wistar rat model assessed as improvement in blood glucose level at 100 mg/kg,po measured upto 24 hrs relative to control; type: functional
Rattus norvegicus [8] = test: Antidiabetic activity in streptozotocin induced hyperglycemic Wistar rat model assessed as improvement in blood glucose level at 100 mg/kg,po measured upto 5 hrs relative to control; type: functional
Syrian golden hamster [9] = test: Antidyslipidemic activity in Triton-induced hyperlipidemic Syrian golden hamster model assessed as increase in lecithin-cholesterol acyltransferase level at 50 mg/kg measured after 18 hrs; type: functional, Mesocricetus auratus
L6 [10] = test: Induction of glucose uptake in rat L6 cells expressing GLUT4 myc epitopes at 10 uM incubated for 24 hrs by scintillation counting method relative to control; type: functional
L6 [11] = test: Cytotoxicity against rat L6 cells assessed as reduction in cell viability at 10 uM by MTT assay; type: toxicity, cell-based; details: l6, 10 µM
L6 [12] = test: Induction of glucose uptake in rat L6 cells expressing GLUT4 myc epitopes at 5 uM incubated for 24 hrs by scintillation counting method relative to control; type: functional
L6 [13] = test: Induction of GLUT4myc translocation to rat L6 cells surface at 5 to 25 uM incubated for 20 mins followed by insulin stimulation by colorimetric assay; type: functional, cell-based; details: dose 5-25 µM
L6 [14] = test: Induction of GLUT4myc translocation to rat L6 cells surface measured after 16 hrs by colorimetric assay; type: functional, cell-based; details: dose 5-25 µM
L6 [15] = test: Cytotoxicity against rat L6 cells assessed as reduction in cell viability at 5 to 100 uM incubated overnight by MTT assay; type: toxicity, cell-based; details: l6, 100 µM, dose 5-100 µM
L6 [16] = test: Induction of insulin stimulated glucose uptake in rat L6 cells expressing GLUT4 myc epitopes at 10 uM preincubated for 16 hrs followed by 3 hrs incubation under serum deprived medium prior to insulin stimulation for 20 mins; type: functional, cell-based; details: time 1160.0 min

| Compound | Activity [1] | Activity [2] | Activity (Syrian golden hamster [3]) [%] | Activity (Syrian golden hamster [4]) [%] | Activity (Syrian golden hamster [5]) [%] | Activity (Syrian golden hamster [6]) [%] | Activity (Rattus norvegicus [7]) [%] | Activity (Rattus norvegicus [8]) [%] | Activity (Syrian golden hamster [9]) [%] | Activity (L6 [10]) [%] | Activity (L6 [11]) | Activity (L6 [12]) [%] | Activity (L6 [13]) | Activity (L6 [14]) | Activity (L6 [15]) | Activity (L6 [16]) |
| --- | --- | --- | --- | --- | --- | --- | --- | --- | --- | --- | --- | --- | --- | --- | --- | --- |
| CC1(C)C=Cc2c(O)c(C(=O)/C=C/c3ccc4occc4c3)c3c(c2O1)C=CC(C)(C)O3 | 12 | 16 | 22 | 13 | 19 | 11 | 0.81 | 2.3 | 15 | 124 |  |  |  |  |  |  |
| Cc1ccc(C(=O)c2cc3cc(/C=C/C(=O)c4ccc5c(c4O)C=CC(C)(C)O5)ccc3o2)cc1 | 10 | 11 | 18 | 11 | 13 | 13 |  |  | 17 | 53.1 |  |  |  |  |  |  |
| COc1ccc(C(=O)c2cc3cc(/C=C/C(=O)c4c(O)ccc5c4OC(C)(CCC=C(C)C)C=C5)ccc3o2)cc1 (stereo not drawn) | 13 | 11 | 19 | 15 | 16 | 16 |  |  | 19 | 65.5 |  |  |  |  |  |  |
| CC1(C)C=Cc2ccc(O)c(C(=O)/C=C/c3ccc4occc4c3)c2O1 | 15 | 18 | 21 | 19 | 11 | 14 |  |  | 18 |  | Toxic |  |  |  |  |  |
| Cc1ccc(C(=O)c2cc3cc(/C=C/C(=O)c4c(O)ccc5c4OC(C)(C)C=C5)ccc3o2)cc1 | 18 | 13 | 19 | 11 | 15 | 16 |  |  | 20 | 72.9 |  |  |  |  |  |  |
| CC1(C)C=Cc2c(ccc(C(=O)/C=C/c3ccc4occc4c3)c2O)O1 | 12 | 16 | 19 | 10 | 15 | 13 |  |  | 17 | 161.5 |  | 96 |  |  |  |  |
| CC1(C)C=Cc2c(O)c(C(=O)/C=C/c3ccc4oc(C(=O)c5ccccc5)cc4c3)c3c(c2O1)C=CC(C)(C)O3 | 11 | 15 | 23 | 16 | 18 | 10 |  |  | 14 | 26.5 |  |  |  |  |  |  |
| CC(C)=CCCC1(C)C=Cc2ccc(O)c(C(=O)/C=C/c3ccc4occc4c3)c2O1 (stereo not drawn) | 19 | 11 | 17 | 11 | 11 | 10 |  |  | 14 | 108 |  |  |  |  |  |  |
| CC(C)=CCCC1(C)C=Cc2c(ccc(C(=O)/C=C/c3ccc4occc4c3)c2O)O1 (stereo not drawn) | 16 | 14 | 21 | 19 | 11 | 16 | 17.2 | 19.2 | 20 | 188 |  | 73.5 |  |  |  |  |
| COc1ccc(C(=O)c2cc3cc(/C=C/C(=O)c4c(O)ccc5c4OC(C)(C)C=C5)ccc3o2)cc1 | 7 | 10 | 17 | 11 | 13 | 10 | 16.8 | 18.7 | 12 | 220.5 |  | 93 | Active | Dose-Dependent Effect | Non-Toxic | inactive |
| Oc1ncnc2[nH]ncc12 |  | 37 |  |  |  |  |  |  |  |  |  |  |  |  |  |  |
| CC(C)=CCCC1(C)C=Cc2c(ccc(C(=O)/C=C/c3ccc4oc(C(=O)c5ccccc5)cc4c3)c2O)O1 (stereo not drawn) | 18 | 18 | 18 | 13 | 10 | 21 |  |  | 25 | 20.5 |  |  |  |  |  |  |
| COc1ccc(C(=O)c2cc3cc(/C=C/C(=O)c4ccc5c(c4O)C=CC(C)(CCC=C(C)C)O5)ccc3o2)cc1 (stereo not drawn) | 7 | 9 | 14 | 10 | 10 | 7 |  |  | 9 | 6 |  |  |  |  |  |  |
| COc1ccc(C(=O)c2cc3cc(/C=C/C(=O)c4c(O)c5c(c6c4OC(C)(C)C=C6)OC(C)(C)C=C5)ccc3o2)cc1 | 17 | 12 | 21 | 13 | 15 | 9 |  |  | 12 | 22 |  |  |  |  |  |  |
| CC(C)=CCCC1(C)C=Cc2ccc(O)c(C(=O)/C=C/c3ccc4oc(C(=O)c5ccc(Cl)cc5)cc4c3)c2O1 (stereo not drawn) | 13 | 12 | 24 | 18 | 18 | 11 |  |  | 15 | 4 |  |  |  |  |  |  |
| CC(C)=CCCC1(C)C=Cc2ccc(O)c(C(=O)/C=C/c3ccc4oc(C(=O)c5ccc(C)cc5)cc4c3)c2O1 (stereo not drawn) | 11 | 19 | 22 | 17 | 14 | 18 |  |  | 22 | 47.4 |  |  |  |  |  |  |
| CN(C)C(=N)NC(=N)N [METFORMIN] |  |  |  |  |  |  | 27.9 | 30.5 |  |  |  |  |  |  |  |  |
| Cc1ccc(C)c(OCCCC(C)(C)C(=O)O)c1 [GEMFIBROZIL] |  |  | 41 | 34 | 36 | 38 |  |  | 42 |  |  |  |  |  |  |  |
| CC(C)=CCCC1(C)C=Cc2ccc(O)c(C(=O)/C=C/c3ccc4oc(C(=O)c5ccccc5)cc4c3)c2O1 (stereo not drawn) | 13 | 12 | 13 | 6 | 8 | 17 |  |  | 19 | 82.5 |  |  |  |  |  |  |
| CC1(C)C=Cc2ccc(O)c(C(=O)/C=C/c3ccc4oc(C(=O)c5ccc(Cl)cc5)cc4c3)c2O1 | 12 | 17 | 11 | 6 | 7 | 8 |  |  | 10 | 89 |  |  |  |  |  |  |
| COc1ccc(C(=O)c2cc3cc(/C=C/C(=O)c4ccc5c(c4O)C=CC(C)(C)O5)ccc3o2)cc1 | 11 | 16 | 21 | 13 | 16 | 15 |  |  | 19 | 109.5 |  |  |  |  |  |  |
| COc1ccc(C(=O)c2cc3cc(/C=C/C(=O)c4c(O)c5c(c6c4OC(C)(CCC=C(C)C)C=C6)OC(C)(CCC=C(C)C)C=C5)ccc3o2)cc1 (stereo not drawn) | 11 | 9 | 16 | 13 | 14 | 18 |  |  | 21 | 37 |  |  |  |  |  |  |
| CN(CCOc1ccc(CC2SC(=O)NC2=O)cc1)c1ccccn1 (stereo not drawn) [ROSIGLITAZONE] |  |  |  |  |  |  |  |  |  | 96.5 |  |  |  |  |  |  |
| CC1(C)C=Cc2c(O)c(C(=O)/C=C/c3ccc4oc(C(=O)c5ccc(Cl)cc5)cc4c3)c3c(c2O1)C=CC(C)(C)O3 | 13 | 21 | 26 | 16 | 24 | 11 |  |  | 15 | 27 |  |  |  |  |  |  |
| OC[C@@H](O)[C@@H](O)[C@H](O)[C@H](O)CO | 39 |  |  |  |  |  |  |  |  |  |  |  |  |  |  |  |
